For this assay, the target named is T1, Cholecystokinin receptor type A (Cavia porcellus, UniProt Q63931).
T1 sequence (Q63931 whole entry): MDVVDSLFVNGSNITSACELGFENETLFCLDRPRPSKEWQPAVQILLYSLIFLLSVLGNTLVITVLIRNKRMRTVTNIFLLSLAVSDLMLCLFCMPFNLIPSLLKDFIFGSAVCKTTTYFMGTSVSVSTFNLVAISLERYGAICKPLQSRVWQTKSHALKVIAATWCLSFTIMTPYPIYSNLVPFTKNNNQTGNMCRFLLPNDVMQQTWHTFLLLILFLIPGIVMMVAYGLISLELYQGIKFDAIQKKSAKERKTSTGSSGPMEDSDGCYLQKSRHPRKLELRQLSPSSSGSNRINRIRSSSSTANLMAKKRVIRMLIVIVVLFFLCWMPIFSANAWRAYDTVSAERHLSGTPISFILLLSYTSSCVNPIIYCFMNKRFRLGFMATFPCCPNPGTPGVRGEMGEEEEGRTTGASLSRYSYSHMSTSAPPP
The experiment in a line: Binding activity towards cholecystokinin-A (CCK-A) receptor in guinea pig pancreas.
On to `Cc1ccc2c(c1)N(CC(=O)NC(C)(C)C)C(=O)[C@H](NC(=O)Nc1cccc(C(=O)Nc3nnn[nH]3)c1)C[C@@H]2c1ccccc1`, for which the IC50 (as a rule, the midpoint of a concentration-inhibition curve) worked out at 1000 nM.

`COC(=O)c1cccc(NC(=O)N[C@@H]2C[C@H](c3ccccc3)c3ccc(C)cc3N(CC(=O)NC(C)(C)C)C2=O)c1`: the IC50 worked out at 310 nM.

Take `CCS(=O)(=O)NC(=O)c1cccc(NC(=O)N[C@@H]2C[C@H](c3ccccc3)c3ccc(C)cc3N(CC(=O)NC(C)(C)C)C2=O)c1`: the half-inhibitory concentration (IC50) is 1100 nM.

As to `Cc1ccc2c(c1)N(CC(=O)NC(C)(C)C)C(=O)[C@H](NC(=O)Nc1cccc(C(=O)O)c1)C[C@@H]2c1ccccc1`, the IC50 came to 4200 nM.

As for `Cc1ccc2c(c1)N(CC(=O)NC(C)(C)C)C(=O)[C@H](NC(=O)Nc1cccc(C(=O)O)c1)C[C@@H]2C1CCCCC1` (stereo in doubt; 2), the IC50 stood at 1400 nM.

The molecule `Cc1ccc2c(c1)N(CC(=O)NC(C)(C)C)C(=O)[C@H](NC(=O)Nc1cccc(-c3nnn[nH]3)c1)C[C@@H]2C(C)C` showed an IC50 of 250 nM.

In turn, `Cc1ccc2c(c1)N(CC(=O)NC(C)(C)C)C(=O)[C@H](NC(=O)Nc1cccc(-c3nnn[nH]3)c1)C[C@@H]2CC1CCCCC1` registered an IC50 of 220 nM.

In turn, `Cc1ccc2c(c1)N(CC(=O)NC(C)(C)C)C(=O)[C@H](NC(=O)Nc1cccc(C(=O)NS(C)(=O)=O)c1)C[C@@H]2c1ccccc1` came in with a concentration for half-maximal inhibition (IC50) of 970 nM.

As for `Cc1ccc2c(c1)N(CC(=O)NC(C)(C)C)C(=O)[C@H](NC(=O)Nc1cccc(-c3nnn[nH]3)c1)C[C@@H]2C1CCCCC1`, the IC50 turned out to be 490 nM.

Molecule `Cc1ccc2c(c1)N(CC(=O)NC(C)(C)C)C(=O)[C@H](NC(=O)Nc1cccc(C(=O)NS(=O)(=O)C(F)(F)F)c1)C[C@@H]2c1ccccc1` had an IC50 of 320 nM.

Molecule `Cc1ccc2c(c1)N(CC(=O)NC(C)(C)C)C(=O)[C@H](NC(=O)Nc1cccc(C(=O)NS(=O)(=O)c3ccccc3)c1)C[C@@H]2c1ccccc1` showed an IC50 of 1300 nM.

The molecule `Cc1ccc2c(c1)N(CC(=O)NC(C)(C)C)C(=O)[C@H](NC(=O)Nc1cccc(C(=O)NS(=O)(=O)Cc3ccccc3)c1)C[C@@H]2c1ccccc1` had an IC50 of 730 nM.

Molecule `Cc1ccc2c(c1)N(CC(=O)NC(C)(C)C)C(=O)[C@H](NC(=O)Nc1cccc(C(=O)NS(=O)(=O)c3ccccc3C)c1)C[C@@H]2c1ccccc1` came in with an IC50 of 1300 nM.

In turn, `Cc1ccc2c(c1)N(CC(=O)NC(C)(C)C)C(=O)[C@H](NC(=O)Nc1cccc(C(=O)O)c1)C[C@@H]2C1CCCCC1` (stereo in doubt; 5k) came in with an IC50 of 2300 nM.

With `Cc1ccc2c(c1)N(CC(=O)NC(C)(C)C)C(=O)[C@H](NC(=O)Nc1cccc(-c3nnn[nH]3)c1)C[C@@H]2Cc1ccccc1`, the IC50 came to 34 nM.

Molecule `Cc1ccc([C@H]2C[C@@H](NC(=O)Nc3cccc(-c4nn[nH]n4)c3)C(=O)N(CC(=O)NC(C)(C)C)c3cc(C)ccc32)cc1` came in with an IC50 of 600 nM.

As to `Cc1ccc2c(c1)N(CC(=O)NC(C)(C)C)C(=O)[C@H](NC(=O)Nc1cccc(C(=O)NS(C)(=O)=O)c1)C[C@@H]2C1CCCCC1`, the IC50 came out at 520 nM.

`COC(=O)c1cccc(NC(=O)N[C@@H]2C[C@H](C3CCCCC3)c3ccc(C)cc3N(CC(=O)NC(C)(C)C)C2=O)c1`: the IC50 was found to be 370 nM.

For `Cc1ccc2c(c1)N(CC(=O)NC(C)(C)C)C(=O)[C@H](NC(=O)Nc1cccc(-c3nnn[nH]3)c1)C[C@@H]2c1ccccc1`, the IC50 turned out to be 620 nM.
